Among the data in ChEMBL document CHEMBL3045442, “Fungicidal activity of pipernonaline, a piperidine alkaloid derived from long pepper, Piper longum L., against phytopathogenic fungi” (2001) are Activity values, retold here.

Assay type in all cases: functional
Common to all, as to parameters: scale not given: the % may be the effect or the level left

The test system of experiment [1] is Phytophthora infestans. Kind of experiment: Fungicidal activity against Phytophthora infestans infected tomato assessed as reduction in tomato late blight disease at 50 mg/l applied for 1 day prior to infection relative to untreated control.
Experiment [2] has as its system Botrytis cinerea. Kind of experiment: Fungicidal activity against Botryotinia fuckeliana infected cucumber assessed as reduction in cucumber gray mold disease at 50 mg/l applied for 1 day prior to infection relative to untreated control.
Experiment [3] relates to Puccinia recondita. Kind of experiment: Fungicidal activity against Puccinia recondita infected wheat assessed as reduction in wheat leaf rust disease at 1000 mg/l applied for 1 day prior to infection relative to untreated control.
Experiment [4] has as its system Rhizoctonia solani. The experiment in a line: Fungicidal activity against Rhizoctonia solani infected rice assessed as reduction in rice sheath blight disease at 500 mg/l applied for 1 day prior to infection relative to untreated control.
The test system of experiment [5] is Pyricularia grisea. Kind of experiment: Fungicidal activity against Magnaporthe grisea infected rice assessed as reduction in rice blast disease at 1000 mg/l applied for 1 day prior to infection relative to untreated control.
Experiment [6] relates to Botrytis cinerea. Kind of experiment: Fungicidal activity against Botryotinia fuckeliana infected cucumber assessed as reduction in cucumber gray mold disease at 500 mg/l applied for 1 day prior to infection relative to untreated control.
In experiment [7] the test system is Pyricularia grisea. The experiment in a line: Fungicidal activity against Magnaporthe grisea infected rice assessed as reduction in rice blast disease at 500 mg/l applied for 1 day prior to infection relative to untreated control.
The test system of experiment [8] is Blumeria graminis. The experiment in a line: Fungicidal activity against Blumeria graminis infected barley assessed as reduction in powdery mildew disease at 1000 mg/l applied for 1 day prior to infection relative to untreated control.
Experiment [9] relates to Rhizoctonia solani. Kind of experiment: Fungicidal activity against Rhizoctonia solani infected rice assessed as reduction in rice sheath blight disease at 1000 mg/l applied for 1 day prior to infection relative to untreated control.
Experiment [10] relates to Botrytis cinerea. Kind of experiment: Fungicidal activity against Botryotinia fuckeliana infected cucumber assessed as reduction in cucumber gray mold disease at 1000 mg/l applied for 1 day prior to infection relative to untreated control.
The subject of experiment [11] is Puccinia recondita. The experiment in a line: Fungicidal activity against Puccinia recondita infected wheat assessed as reduction in wheat leaf rust disease at 500 mg/l applied for 1 day prior to infection relative to untreated control.
The subject of experiment [12] is Phytophthora infestans. Kind of experiment: Fungicidal activity against Phytophthora infestans infected tomato assessed as reduction in tomato late blight disease at 1000 mg/l applied for 1 day prior to infection relative to untreated control.
Experiment [13] concerns Blumeria graminis. Kind of experiment: Fungicidal activity against Blumeria graminis infected barley assessed as reduction in powdery mildew disease at 500 mg/l applied for 1 day prior to infection relative to untreated control.
The test system of experiment [14] is Phytophthora infestans. Kind of experiment: Fungicidal activity against Phytophthora infestans infected tomato assessed as reduction in tomato late blight disease at 500 mg/l applied for 1 day prior to infection relative to untreated control.
In experiment [15] the test system is Rhizoctonia solani. The experiment in a line: Fungicidal activity against Rhizoctonia solani infected rice assessed as reduction in rice sheath blight disease at 250 mg/l applied for 1 day prior to infection relative to untreated control.
Experiment [16] deals with Botrytis cinerea. The experiment in a line: Fungicidal activity against Botryotinia fuckeliana infected cucumber assessed as reduction in cucumber gray mold disease at 250 mg/l applied for 1 day prior to infection relative to untreated control.
For experiment [17], the system named is Blumeria graminis. The experiment in a line: Fungicidal activity against Blumeria graminis infected barley assessed as reduction in powdery mildew disease at 250 mg/l applied for 1 day prior to infection relative to untreated control.
The subject of experiment [18] is Puccinia recondita. The experiment in a line: Fungicidal activity against Puccinia recondita infected wheat assessed as reduction in wheat leaf rust disease at 250 mg/l applied for 1 day prior to infection relative to untreated control.
Experiment [19] deals with Pyricularia grisea. The experiment in a line: Fungicidal activity against Magnaporthe grise infected rice assessed as reduction in rice blast disease at 250 mg/l applied for 1 day prior to infection relative to untreated control.
In experiment [20] the test system is Phytophthora infestans. The experiment in a line: Fungicidal activity against Phytophthora infestans infected tomato assessed as reduction in tomato late blight disease at 250 mg/l applied for 1 day prior to infection relative to untreated control.

For the molecule `N#Cc1c(Cl)c(Cl)c(Cl)c(C#N)c1Cl` [CHLOROTHALONIL], in the experiment on Phytophthora infestans [1], the Activity amounted to 95%.
In the case of `CN(C)S(=O)(=O)N(SC(F)(Cl)Cl)c1ccccc1` [DICHLOFLUANID], the Activity with Botrytis cinerea [2] is 92%.
In the case of `C=CCc1ccc(O)c(OC)c1` [EUGENOL], the Activity turned out to be 0% with Puccinia recondita [3]; 0% with Rhizoctonia solani [4]; 0% in the experiment with Pyricularia grisea [5]; 0% with Botrytis cinerea [6]; 0% in the experiment on Pyricularia grisea [7]; 5% in the experiment on Blumeria graminis [8]. Further, the Activity with Rhizoctonia solani [9], with Botrytis cinerea [10], in the experiment with Puccinia recondita [11], with Phytophthora infestans [12], with Blumeria graminis [13] and in the experiment with Phytophthora infestans [14] was 0% throughout.
As for `O=C(CCCC/C=C/c1ccc2c(c1)OCO2)N1CCCCC1` [PIPERETTINE], the Activity in the experiment on Puccinia recondita [3] stood at 0%; in the experiment with Rhizoctonia solani [4], 0%; with Pyricularia grisea [5], 0%; with Botrytis cinerea [6], 0%; in the experiment on Pyricularia grisea [7], 0%; in the experiment on Blumeria graminis [8] it was 60%. In addition, the Activity in the experiment on Rhizoctonia solani [9] was determined as 0%; in the experiment on Botrytis cinerea [10], 0%; in the experiment with Puccinia recondita [11], 0%; in the experiment on Phytophthora infestans [12], 0%; in the experiment on Blumeria graminis [13], 40%; with Phytophthora infestans [14] it was 0%.
For the molecule `O=C(/C=C/C=C/c1ccc2c(c1)OCO2)N1CCCCC1` [PIPERINE], the Activity in the experiment with Puccinia recondita [3], with Rhizoctonia solani [4], with Pyricularia grisea [5], in the experiment on Botrytis cinerea [6], in the experiment with Pyricularia grisea [7] and in the experiment on Blumeria graminis [8] was 0% in each case. Also, the Activity in the experiment with Rhizoctonia solani [9], in the experiment with Botrytis cinerea [10], in the experiment on Puccinia recondita [11], in the experiment on Phytophthora infestans [12], in the experiment with Blumeria graminis [13] and in the experiment on Phytophthora infestans [14] was 0% throughout.
With `O=C(/C=C/CCCC/C=C/c1ccc2c(c1)OCO2)N1CCCCC1` [PIPERNONALINE], the Activity in the experiment on Rhizoctonia solani [15] stood at 0%; in the experiment with Puccinia recondita [3], 100%; in the experiment with Botrytis cinerea [16], 0%; with Rhizoctonia solani [4], 0%; with Pyricularia grisea [5], 71%; with Blumeria graminis [17], 0%. The Activity is recorded as 80% with Puccinia recondita [18]; 0% in the experiment on Botrytis cinerea [6]; 26% in the experiment with Pyricularia grisea [19]; 51% in the experiment with Pyricularia grisea [7]; 0% in the experiment with Blumeria graminis [8]; 35% in the experiment with Rhizoctonia solani [9]. Moreover, the Activity turned out to be 0% in the experiment with Botrytis cinerea [10]; 55% in the experiment with Phytophthora infestans [20]; 91% in the experiment with Puccinia recondita [11]; 91% in the experiment with Phytophthora infestans [12]; 0% with Blumeria graminis [13]; 80% with Phytophthora infestans [14].
Consider `COc1cc(/C=C/C(=O)N2CCC=CC2=O)cc(OC)c1OC` [PIPLARTINE], for which the Activity in the experiment with Puccinia recondita [3] turned out to be 0%; with Rhizoctonia solani [4], 0%; in the experiment on Pyricularia grisea [5], 10%; in the experiment on Botrytis cinerea [6] it was 0%; in the experiment with Pyricularia grisea [7], 0%; in the experiment on Blumeria graminis [8], 0%. In addition, the Activity in the experiment on Rhizoctonia solani [9], in the experiment with Botrytis cinerea [10], in the experiment on Puccinia recondita [11], with Phytophthora infestans [12], in the experiment with Blumeria graminis [13] and with Phytophthora infestans [14] was 0% each time.
